Measurements from US3957812A, “Derivatives of 2-phenoxyacetamido-5-nitro-thiazole” (priority 1973, dated 1976).

What was measured:
Format in all cases: cell-based
Conditions in all cases: in words
fungi = assay: Activity against fungi
Experimental: (4) Method for determining fungistatic doses:
A liquide Sabouraud medium having the following composition is used:
If necessary, the pH is adjusted at 6.4 and the medium is sterilized.
The compounds are dissolved in dimethylformamide to which polyethylene glycol is sometimes added. From the mother-liquor, successive diluted solutions are prepared in the liquid Sabouraud medium, so as to obtain concentrations of 1, 3, 10, 30 100 and […] per ml. For the first dilution, one should not add more than 10% of the mother-liquor to the Sabouraud medium. Subsequently 9 ml per tube of the various solutions in the liquid Sabouraud medium are distributed.
Reference tubes corresponding to the highest solvent concentrations are also prepared.
Cultures of the various dermatophyte strains on Sabouraud gelose medium are prepared. From 1 to 2 months old cultures, homogeneous suspensions of said cultures in the liquid Sabouraud medium are prepared, the obtained suspensions being stirred in the presence of glass pearls having a light transmission of about 40%.
One drop of said suspension is introduced in the tubes containing the various concentrations of the compound to be tested.
at 25°C ± 2°C in the dark
10 days of incubation for dermatophytes.

Entomoeba dysenteriae = assay: Test for amoebicidal activity
Excerpt: (§1) Biological tests have been performed with a great number of compounds of formula (I) using the following techniques: (1) Test for amoebicidal activity described by R. CAVIER, Ann. pharm. franc., 1960, 18, pages 583-589 and by R. CAVIER, and J. CENAC, Bull. Soc. Path. exot. 1972, 65, pages 399-404. (2) Test for trichomonacidal activity described by R. CAVIER and P. BUOT, Ann. pharm. franc., 1964, 22, pages 211-216 and by R. CAVIER and J. CENAC, Semaine des Hopitaux, 1972, 48, pages 391-394). (3) Tests for anthelminthics described for nematodes (such as Syphacia obvelata) by R. CAVIER, Bull. Soc. Path. exot., 1962, 55, pages 412-417 and, for cestodes (such as Hymenolepis nana), by R. CAVIER, Ann. pharm. franc., 1956, 14, pages 545-552 and by R. CAVIER and M. J. NOTTEGHEM, Ann. pharm. franc. 1968, 28, pages 603-606.

bacteria = assay: Activity against bacteria
Experimental: (5) Method for determining bacteriostatic doses
A common gelose medium of the following composition is used.
The pH is adjusted at 7.2 and the medium is sterilized during 30 minutes at 120°C.
The same method as for the determination of fungistatic doses is used, except that the various dilutions of each compound are added to the gelose medium, the solvent concentration never exceeding 3%. Tubes containing […] of the compounds per ml are prepared.
Cultures of each strain in the liquid medium are prepared and, after 24 hours of incubation at 37°C, dilutions of these cultures in ordinary broth are prepared as follows:
By means of these dilutions, scratches of a length of 4 to 5 cm are made on the previously dried surface of the gelose medium to which various amounts of the compound to be tested have been added.

Trichomonas vaginalis = assay: Test for trichomonacidal activity
Excerpt: as §1

O=C(COc1ccccc1)Nc1ncc([N+](=O)[O-])s1 [2-phenoxyacetamido-5-nitro-thiazole]
no activity: activity against fungi (fungi) | activity against Entomoeba dysenteriae (Entomoeba dysenteriae) | activity against bacteria (bacteria) | activity against Trichomonas vaginalis (Trichomonas vaginalis)
